Measurements as given in patent publication US8143290B2, “Chemical compounds 572” (AstraZeneca AB, priority 2006, dated 2012).

biological target: T1, recombinant human GR (Homo sapiens, UniProt P04150); experiment: Human Glucocorticoid Receptor (GR) Assay, fluorescence polarization; format: binding; conditions: GS Red tracer, incubated 2 h at r.t., XLfit model 205, read-out: GRhuFL_FP_v2 Mean IC50
T1 construct: purchased Panvera/Invitrogen P2812 (kit P2893)
T1 sequence (P04150 1-777): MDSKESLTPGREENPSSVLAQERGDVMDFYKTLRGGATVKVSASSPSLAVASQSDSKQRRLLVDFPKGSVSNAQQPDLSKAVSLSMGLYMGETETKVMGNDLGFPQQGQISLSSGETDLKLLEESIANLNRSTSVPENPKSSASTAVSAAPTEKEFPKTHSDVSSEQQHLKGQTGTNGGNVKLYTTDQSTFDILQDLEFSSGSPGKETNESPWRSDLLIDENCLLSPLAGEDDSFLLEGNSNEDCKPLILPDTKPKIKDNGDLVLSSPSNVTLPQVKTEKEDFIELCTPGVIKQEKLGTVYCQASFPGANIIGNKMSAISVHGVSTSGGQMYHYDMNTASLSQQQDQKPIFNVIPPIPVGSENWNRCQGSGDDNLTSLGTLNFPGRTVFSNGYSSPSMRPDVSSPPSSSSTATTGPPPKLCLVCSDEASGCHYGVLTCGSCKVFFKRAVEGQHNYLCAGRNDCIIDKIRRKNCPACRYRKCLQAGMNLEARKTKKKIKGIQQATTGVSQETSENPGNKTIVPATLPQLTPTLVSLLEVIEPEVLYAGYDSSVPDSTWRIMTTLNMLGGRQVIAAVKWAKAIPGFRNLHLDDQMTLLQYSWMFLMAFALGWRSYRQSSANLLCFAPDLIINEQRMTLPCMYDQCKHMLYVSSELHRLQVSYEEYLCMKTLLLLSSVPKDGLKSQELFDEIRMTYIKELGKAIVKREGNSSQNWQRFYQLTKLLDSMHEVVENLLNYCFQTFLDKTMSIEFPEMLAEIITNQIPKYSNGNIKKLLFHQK
How it was run: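 After 2 h dark incubation at r.t., polarization reported displacement of the GS Red tracer from recombinant GR, in buffer with phosphate, molybdate, EDTA, DTT and Stabilizing Peptide. Controls: dexamethasone (100%) and DMSO (0%).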

Structure (SMILES)	IC50 [nM]
COc1cccc([C@@H](Oc2ccc3c(cnn3-c3ccc(F)cc3)c2)[C@H](C)NC(=O)CNC(N)=O)c1 [Example 270, 2-(carbamoylamino)-N-[(1R,2S)-1-[1-(4-fluorophenyl)indazol-5-yl]oxy-1-(3-methoxyphenyl)propan-2-yl]acetamide]	8.1
COc1cccc([C@@H](Oc2ccc3c(cnn3-c3ccc(F)cc3)c2)[C@H](C)N2C(=O)CNC2=O)c1 [Example 271, 3-[(1R,2S)-1-[1-(4-fluorophenyl)indazol-5-yl]oxy-1-(3-methoxyphenyl)propan-2-yl]imidazolidine-2,4-dione]	21
COc1cccc([C@@H](Oc2ccc3c(cnn3-c3ccc(F)cc3)c2)[C@H](C)NC(=O)c2ccc(Br)s2)c1 [Example 272, 5-bromo-N-[(1R,2S)-1-[1-(4-fluorophenyl)indazol-5-yl]oxy-1-(3-methoxyphenyl)propan-2-yl]thiophene-2-carboxamide]	4.3
COc1cccc([C@@H](Oc2ccc3c(cnn3-c3ccc(F)cc3)c2)[C@H](C)NC(=O)c2ccc(S(C)(=O)=O)s2)c1 [Example 273, N-[(1R,2S)-1-[1-(4-fluorophenyl)indazol-5-yl]oxy-1-(3-methoxyphenyl)propan-2-yl]-5-methylsulfonyl-thiophene-2-carboxamide]	7.9
COc1cccc([C@@H](Oc2ccc3c(cnn3-c3ccc(F)cc3)c2)[C@H](C)NC(=O)c2ccc(Br)o2)c1 [Example 276, 5-bromo-N-[(1R,2S)-1-[1-(4-fluorophenyl)indazol-5-yl]oxy-1-(3-methoxyphenyl)propan-2-yl]furan-2-carboxamide]	12
COc1cccc([C@@H](Oc2ccc3c(cnn3-c3ccc(F)cc3)c2)[C@H](C)NC(=O)c2nnc(C)o2)c1 [Example 277, N-[(1R,2S)-1-[1-(4-fluorophenyl)indazol-5-yl]oxy-1-(3-methoxyphenyl)propan-2-yl]-5-methyl-1,3,4-oxadiazole-2-carboxamide]	4.7
COc1cccc([C@@H](Oc2ccc3c(cnn3-c3ccc(F)cc3)c2)[C@H](C)NC(=O)c2cn(C)cn2)c1 [Example 283, N-[(1R,2S)-1-[1-(4-fluorophenyl)indazol-5-yl]oxy-1-(3-methoxyphenyl)propan-2-yl]-1-methyl-imidazole-4-carboxamide]	4.7
COc1cccc([C@@H](Oc2ccc3c(cnn3-c3ccc(F)cc3)c2)[C@H](C)NC(=O)c2cnoc2C)c1 [Example 284, N-[(1R,2S)-1-[1-(4-fluorophenyl)indazol-5-yl]oxy-1-(3-methoxyphenyl)propan-2-yl]-5-methyl-1,2-oxazole-4-carboxamide]	22
COc1cccc([C@@H](Oc2ccc3c(cnn3-c3ccc(F)cc3)c2)[C@H](C)NC(=O)c2cc(C)c(C)o2)c1 [Example 286, N-[(1R,2S)-1-[1-(4-fluorophenyl)indazol-5-yl]oxy-1-(3-methoxlphenyl)propan-2-yl]-4,5-dimethyl-furan-2-carboxamide]	4.7
COc1cccc([C@@H](Oc2ccc3c(cnn3-c3ccc(F)cc3)c2)[C@H](C)NC(=O)c2cc(C)n(C)n2)c1 [Example 287, N-[(1R,2S)-1-[1-(4-fluorophenyl)indazol-5-yl]oxy-1-(3-methoxyphenyl)propan-2-yl]-1,5-dimethyl-pyrazole-3-carboxamide]	4.3
COc1cccc([C@@H](Oc2ccc3c(cnn3-c3ccc(F)cc3)c2)[C@H](C)NC(=O)c2ncsc2C)c1 [Example 288, N-[(1R,2S)-1-[1-(4-fluorophenyl)indazol-5-yl]oxy-1-(3-methoxyphenyl)propan-2-yl]-5-methyl-1,3-thiazole-4-carboxamide]	5
COc1cccc([C@@H](Oc2ccc3c(cnn3-c3ccc(F)cc3)c2)[C@H](C)NC(=O)c2cc(C)c(C)s2)c1 [Example 291, N-[(1R,2S)-1-[1-(4-fluorophenyl)indazol-5-yl]oxy-1-(3-methoxyphenyl)propan-2-yl]-4,5-dimethyl-thiophene-2-carboxamide]	6.4
COc1cccc([C@@H](Oc2ccc3c(cnn3-c3ccc(F)cc3)c2)[C@H](C)NC(=O)c2sccc2OC)c1 [Example 292, N-[(1R,2S)-1-[1-(4-fluorophenyl)indazol-5-yl]oxy-1-(3-methoxyphenyl)propan-2-yl]-3-methoxy-thiophene-2-carboxamide]	5.7
COc1cccc([C@@H](Oc2ccc3c(cnn3-c3ccc(F)cc3)c2)[C@H](C)NC(=O)c2cc3ccccn3n2)c1 [Example 293, N-[(1R,2S)-1-[1-(4-fluorophenyl)indazol-5-yl]oxy-1-(3-methoxyphenyl)propan-2-yl]-1,9-diazabicyclo[4.3.0]nona-2,4,6,8-tetraene-8-carboxamide]	4.4
COc1cccc([C@@H](Oc2ccc3c(cnn3-c3ccc(F)cc3)c2)[C@H](C)NC(=O)c2ccc(Cl)s2)c1 [Example 295, 5-chloro-N-[(1R,2S)-1-[1-(4-fluorophenyl)indazol-5-yl]oxy-1-(3-methoxyphenyl)propan-2-yl]thiophene-2-carboxamide]	5.7
COc1cccc([C@@H](Oc2ccc3c(cnn3-c3ccc(F)cc3)c2)[C@H](C)NC(=O)c2nc3ccccc3s2)c1 [Example 297, N-[(1R,2S)-1-[1-(4-fluorophenyl)indazol-5-yl]oxy-1-(3-methoxyphenyl)propan-2-yl]benzothiazole-2-carboxamide]	8.6

Now those with a lower IC50, led by results:

IC50 [nM]	Structure (SMILES)
3.9	COc1cccc([C@@H](Oc2ccc3c(cnn3-c3ccc(F)cc3)c2)[C@H](C)NC(=O)c2ncc(C)s2)c1 [Example 274, N-[(1R,2S)-1-[1-(4-fluorophenyl)indazol-5-yl]oxy-1-(3-methoxyphenyl)propan-2-yl]-5-methyl-1,3-thiazole-2-carboxamide]
4	COc1cccc([C@@H](Oc2ccc3c(cnn3-c3ccc(F)cc3)c2)[C@H](C)NC(=O)c2cc(C#N)cs2)c1 [Example 275, 4-cyano-N-[(1R,2S)-1-[1-(4-fluorophenyl)indazol-5-yl]oxy-1-(3-methoxyphenyl)propan-2-yl]thiophene-2-carboxamide]
3.8	COc1cccc([C@@H](Oc2ccc3c(cnn3-c3ccc(F)cc3)c2)[C@H](C)NC(=O)c2cc[nH]n2)c1 [Example 279, N-[(1R,2S)-1-[1-(4-fluorophenyl)indazol-5-yl]oxy-1-(3-methoxyphenyl)propan-2-yl]-1H-pyrazole-3-carboxamide]
3.6	COc1cccc([C@@H](Oc2ccc3c(cnn3-c3ccc(F)cc3)c2)[C@H](C)NC(=O)c2ccon2)c1 [Example 280, N-[(1R,2S)-1-[1-(4-fluorophenyl)indazol-5-yl]oxy-1-(3-methoxyphenyl)propan-2-yl]1,2-oxazole-3-carboxamide]
3.8	COc1cccc([C@@H](Oc2ccc3c(cnn3-c3ccc(F)cc3)c2)[C@H](C)NC(=O)c2nc[nH]n2)c1 [Example 281, N-[(1R,2S)-1-[1-(4-fluorophenyl)indazol-5-yl]oxy-1-(3-methoxyphenyl)propan-2-yl]-1H-1,2,4-triazole-3-carboxamide]
2.4	COc1cccc([C@@H](Oc2ccc3c(cnn3-c3ccc(F)cc3)c2)[C@H](C)NC(=O)c2cc(C)[nH]n2)c1 [Example 282, N-[(1R,2S)-1-[1-(4-fluorophenyl)indazol-5-yl]oxy-1-(3-methoxyphenyl)propan-2-yl]-5-methyl-1H-pyrazole-3-carboxamide]
3.9	COc1cccc([C@@H](Oc2ccc3c(cnn3-c3ccc(F)cc3)c2)[C@H](C)NC(=O)c2scnc2C)c1 [Example 289, N-[(1R,2S)-1-[1-(4-fluorophenyl)indazol-5-yl]oxy-1-(3-methoxyphenyl)propan-2-yl]-4-methyl-1,3-thiazole-5-carboxamide]
3.1	COc1cccc([C@@H](Oc2ccc3c(cnn3-c3ccc(F)cc3)c2)[C@H](C)NC(=O)c2nc(C)cs2)c1 [Example 290, N-[(1R,2S)-1-[1-(4-fluorophenyl)indazol-5-yl]oxy-1-(3-methoxyphenyl)propan-2-yl]-4-methyl-1,3-thiazole-2-carboxamide]
4.1	COc1cccc([C@@H](Oc2ccc3c(cnn3-c3ccc(F)cc3)c2)[C@H](C)NC(=O)c2nc3ccccc3[nH]2)c1 [Example 294, N-[(1R,2S)-1-[1-(4-fluorophenyl)indazol-5-yl]oxy-1-(3-methoxyphenyl)propan-2-yl]-1H-benzoimidazole-2-carboxamide]
4	COc1cccc([C@@H](Oc2ccc3c(cnn3-c3ccc(F)cc3)c2)[C@H](C)NC(=O)c2cc3ccccc3s2)c1 [Example 296, N-[(1R,2S)-1-[1-(4-fluorophenyl)indazol-5-yl]oxy-1-(3-methoxyphenyl)propan-2-yl]benzothiophene-2-carboxamide]
